One series has as its system HeLa cells. Description: Starvation-induced autophagy in HeLa cells (Western blot of LC3B and p62). The series is classed as cell-based. As to conditions: EBSS 0-4 hrs, BafA1 10 nM, CQ 20 μM, SPV-94 1 μM. How it is done: To limit basal autophagy, cells were incubated in fresh growth medium for 1 hr before starvation. Samples were analyzed by Western blot using autophagic flux markers LC3B and p62 (A) and its expression levels were quantified (10B and 10C).
For orientation: Immunoblotting shows a protein as a band on a membrane.

A further series relates to CD-1 mice. Description: Escalating dose maximum tolerated dose study. The series is classed as in vivo. As to conditions: oral; for cage side observation, clinical signs: escalating dose from 5 mg/kg. The method, then:
The objective of this study was to evaluate the escalating dose maximum tolerated dose study of compound of Formula (II) and comparative example
in CD-1 mice. Animals were monitored on a daily basis with body weights and clinical signs, and any abnormal observation findings were recorded.

Series [1] can be described thus: Pharmacokinetic study after single oral administration. It is filed as in vivo, Rat. As to conditions: Sprague-Dawley (SD), plasma, 20 mg/kg; for AUC(0-t): rat, Male SD Rats, PO; for concentration at 0.083 h / concentration at 0.25 h / concentration at 0.5 h / concentration at 1 h / concentration at 2 h / concentration at 4 h / concentration at 8 h / concentration at 24 h: male, Rat, oral, read-out: Plasma Conc. The text has this:
The objective of this study was to characterize the pharmacokinetics (PK) of compound of Formula (II) in Male SD Rats after single intravenous (IV) and oral (PO) administration. […] Following PO administration with comparative example 2: […]

For series [2], the system named is MPTP-induced PD model mice. As to the kind of experiment: Sub-chronic MPTP-induced mice model of PD.
Method: Sub-chronic MPTP regimen (30 mg/kg/day, 5 days) was introduced.
Setting [3] is: L-DOPA 50, CQ 40, SPV-94 5 mg/kg/day.

Regarding `CO/C1=C\C(C)=C\[C@@H](C)[C@@H](O)[C@@H](C)C/C(C)=C/C=C/[C@H](OC)[C@@H]([C@@H](C)[C@@H](O)[C@H](C)[C@@]2(O)C[C@@H](O)[C@H](C)[C@@H](C(C)C)O2)OC1=O` [BafA1, bafilomycin A1], in the series with HeLa cells, the “autophagy process (LC3B, p62)” value is given as “induced autophagy initiation but inhibited autophagy process termination”.
For orientation: AUC(0-t) means exposure summed from dosing to a finite time, without extrapolation to infinity. For `Clc1ccc2c(NCCN3CCN(c4ccnc(-n5ccnc5)n4)CC3)ccnc2c1` [Formula (II)], the “cage side observation, clinical signs” value in the series with CD-1 mice (CD-1 mice) is “no abnormalities were observed”. Further, in series [1], the exposure AUC(0-t) turned out to be 7340 ng·h/mL, the concentration at 0.083 h is 10.7 ng/mL, the concentration at 0.25 h is 118 ng/mL and the concentration at 0.5 h came to 559 ng/mL. Further, in series [1], the concentration at 1 h was 1180 ng/mL, the concentration at 2 h was 1020 ng/mL, the concentration at 4 h came to 953 ng/mL and the concentration at 8 h stood at 294 ng/mL. The concentration at 24 h in series [1] was 16.8 ng/mL.
For the compound `N[C@@H](Cc1ccc(O)c(O)c1)C(=O)O` [L-DOPA, L-3,4-dihydroxyphenylalanine], the “olfactory discrimination test (olfaction), sub-acute stage” value in series [2] is on record as “failed to restore olfaction”. For the same compound, in series [2] (setting [3]), the body weight recovery entry is given as “regained body weight after day 8”; the “cylinder test, rearing numbers, sub-chronic treatment” value is listed as “recovered rearing numbers in the cylinder test”; the “pole test, time to traverse, sub-chronic treatment” value is recorded as “reduced time to traverse on a pole”; the “rotarod latency to fall, sub-chronic treatment” value was “significantly improved motor deficits on the rotarod latency to fall”. Further, the Nurr1-immunoreactive cells result in series [2] (SNpc) is recorded as “failed to protect Nurr1 expressions”. The “Iba-1+ microglia numbers” value in series [2] (STR and SNpc) was “failed to suppress microglial activation”. Also, the “TH+ DAergic neurons (counting and densitometry)” value in series [2] (STR, SNpc and OB) is “did not show protective effect”. The “dyskinesia in the abnormal involuntary movements (AIMs) test” value in series [2] (chronic administration) is given as “developed dyskinesia”. For the same compound, the “olfactory discrimination test (olfaction), chronic treatment” value in series [2] (day 14) is reported as “could not recover olfaction even with chronic treatment”. Moreover, the “rotarod latency to fall, chronic treatment” value in series [2] (day 15) is given as “improved latency to fall on the rotarod on day 15”. In addition, the “velocity during olfactory discrimination” value in series [2] (sub-acute stage) is “hyperactivity indicated as increased velocity”.
As for `Cc1cc(NCCCNc2ccnc3cc(Cl)ccc23)nc(N2CCN(C)CC2)n1` [comp. ex. 2], in series [1], the exposure AUC(0-t) worked out at 250 ng·h/mL, the concentration at 0.083 h was 5.15 ng/mL, the concentration at 0.25 h came to 6.68 ng/mL and the concentration at 0.5 h came to 9.91 ng/mL. In series [1], the concentration at 1 h turned out to be 13.9 ng/mL, the concentration at 2 h came to 14.9 ng/mL, the concentration at 4 h came out at 12 ng/mL and the concentration at 8 h amounted to 16.5 ng/mL. Moreover, in series [1], the concentration at 24 h worked out at 5.92 ng/mL.
For `Cc1cc(NCCCNc2ccnc3cc(Cl)ccc23)nc(N2CCCC2)n1` [comp. ex. 3], in series [1], the AUC(0-t) is 271 ng·h/mL, the concentration at 0.083 h was 7.71 ng/mL, the concentration at 0.25 h came to 16 ng/mL and the concentration at 0.5 h was determined as 16.6 ng/mL. Also, in series [1], the concentration at 1 h came to 19.4 ng/mL, the concentration at 2 h came out at 23.3 ng/mL, the concentration at 4 h turned out to be 19.5 ng/mL and the concentration at 8 h was 14.5 ng/mL. The concentration at 24 h in series [1] was found to be 3.53 ng/mL.
Turning to `Cc1cc(NCCCNc2ccnc3cc(Cl)ccc23)nc(N2CCCCC2)n1` [comparative example], the “tolerability at 40 mg/kg” value in the series with CD-1 mice (CD-1 male mice, 40 mg/kg) was “cannot be tolerated well”. Moreover, the “clinical signs and outcome at 40 mg/kg” value in the series with CD-1 mice (CD-1 mice, 40 mg/kg) is “prone, slightly low temperature and twitched to death on the fourth dosing day”. Moreover, the “cage side observation, clinical signs” value in the series on CD-1 mice (CD-1 mice) is given as “weight loss, roach back, rough coat, low temperature, low activity, tremble or/and dying”.

The values above are taken from patent US20230312510A1, “COMPOUNDS AND METHODS FOR TREATING NEURODEGENERATIVE DISEASES” (The McLean Hospital Corporation, priority 2020, published 2023).
